The values below come from patent publication US20240174605A1, “ARYLSULFONAMIDES AS OREXIN RECEPTOR AGONISTS” (RESEARCH TRIANGLE INSTITUTE, priority 2021, published 2024).

Each structure is given as a SMILES string. Entries after “also recorded” stand apart in the source; their conditions may differ.

The nature of data set [1]: Aqueous solubility at pH 2. Format: physicochemical. The note with it: aqueous medium at pH 2, pH 2, simulated gastric fluid. An excerpt:
(§1) The main structural difference is the pyridyl group connected to the sulfonamide in RTIOXA-47, as compared to the other 3 compounds. The replacement of a phenyl group with a pyridyl reduced the electron density of this aromatic ring.

In a further data set the target is T1, human OX2 receptor (Homo sapiens, UniProt O43614).
T1 construct: host or cells: CHO RD-HGA16 cells
T1 sequence (O43614 1-444): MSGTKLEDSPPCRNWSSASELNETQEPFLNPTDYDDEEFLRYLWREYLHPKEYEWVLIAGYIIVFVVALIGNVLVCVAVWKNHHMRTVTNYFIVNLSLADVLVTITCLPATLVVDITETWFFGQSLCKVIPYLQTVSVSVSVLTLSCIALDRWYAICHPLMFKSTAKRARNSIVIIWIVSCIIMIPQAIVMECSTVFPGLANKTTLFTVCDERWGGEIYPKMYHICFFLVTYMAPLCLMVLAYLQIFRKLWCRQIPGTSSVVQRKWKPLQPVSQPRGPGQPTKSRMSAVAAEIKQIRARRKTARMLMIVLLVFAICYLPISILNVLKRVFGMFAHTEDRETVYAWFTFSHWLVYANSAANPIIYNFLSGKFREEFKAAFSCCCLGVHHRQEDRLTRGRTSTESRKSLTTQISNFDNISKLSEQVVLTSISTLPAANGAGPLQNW
In words: OX2R calcium mobilization assay. The note with it: Table 10. Format: cell-based. How it is done:
(§2) Activity of the target compounds at the human OX1 and OX2 receptors was determined utilizing CHO RD-HGA16 cells (Molecular Devices) engineered to stably express either the human OX1 or the human OX2 receptor. Cells were maintained in Ham's F12 supplemented with 10% fetal bovine serum, 100 units of penicillin and streptomycin, and 100 μg/mL normocin™. To conduct the assay, cells were plated at 25,000 cells/well and incubated overnight at 37° C., 5% CO2. The next day, cells were washed with assay buffer and loaded with Calcium 5 dye (Molecular Devices). After 45 minutes, cells were pretreated with a 9% DMSO solution for 15 minutes.
(§3) All of the synthesized compounds were characterized for their agonist potencies in the calcium mobilization assays using CHO cells overexpressing either the OX1R or OX2R. Reference is made to German, N. A.; Decker, A. M.; Gilmour, B. P.; Thomas, B. F.; Zhang, Y., Truncated Orexin Peptides: Structure-Activity Relationship Studies.

Data set [2] in a line: Metabolic stability in rat liver microsomes (RLM). The note with it: for metabolic stability in rat liver microsomes, in words: RLM; for half-life: rat, rat liver microsomes, read-out: t1/2 (RLM). Format: in vitro ADME.
Description: as §1

The next data set deals with wild-type mice. The note with it: 40 mg/kg i.p., salt form; cited from earlier work.
For a further data set, the target named is T2, OX1R (Homo sapiens, UniProt O43613).
T2 sequence (O43613 1-425): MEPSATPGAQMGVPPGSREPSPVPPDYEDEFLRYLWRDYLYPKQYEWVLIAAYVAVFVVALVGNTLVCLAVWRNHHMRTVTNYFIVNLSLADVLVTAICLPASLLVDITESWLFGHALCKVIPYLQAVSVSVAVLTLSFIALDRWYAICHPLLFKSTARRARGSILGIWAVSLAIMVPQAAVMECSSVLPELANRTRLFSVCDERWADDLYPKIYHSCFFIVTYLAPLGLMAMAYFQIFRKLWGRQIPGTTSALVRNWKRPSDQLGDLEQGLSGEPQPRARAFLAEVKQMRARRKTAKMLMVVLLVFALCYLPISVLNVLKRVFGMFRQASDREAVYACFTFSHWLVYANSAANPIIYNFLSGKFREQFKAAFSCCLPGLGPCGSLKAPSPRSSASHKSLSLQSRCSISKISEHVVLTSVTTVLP
In words: OX1R calcium mobilization assay. Details: host or cells: CHO RD-HGA16 cells. Format: cell-based. The note with it: Table 10. How it is done: as §2, §3
For orientation: Calcium assays in cells follow changes in intracellular calcium, usually with a dye or a luminescent sensor.

The target in another data set is σ1 (Homo sapiens, UniProt Q99720). Nature of the data set: Target selectivity: σ1. Format: binding.
σ1, sequence (Q99720 whole entry): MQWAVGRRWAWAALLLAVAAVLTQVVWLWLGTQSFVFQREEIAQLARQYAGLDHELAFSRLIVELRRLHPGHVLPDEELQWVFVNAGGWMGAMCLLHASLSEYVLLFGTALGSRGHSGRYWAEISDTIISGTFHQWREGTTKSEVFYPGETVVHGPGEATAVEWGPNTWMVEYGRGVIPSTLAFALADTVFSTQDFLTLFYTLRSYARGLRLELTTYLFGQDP
A short description of a further data set: Half-life in vivo. As to conditions: read-out: t1/2 (in vivo) (converted).

For orientation: solubility means the dissolved amount per volume that the medium holds. A lower solubility goes with a poorly soluble substance. As a reminder, the Emax is the greatest response seen or fitted, relative to the assay's reference. In general, Ki refers to the equilibrium dissociation constant of an inhibitor or competing ligand from its target. The low end stands for a stronger hold on the target, the high end for a looser hold on the target. In data set [1], `COc1ccc(-c2cccc(C(=O)N(C)C)c2)cc1S(=O)(=O)Nc1cccc(NCCNC(=O)c2ccccc2N(C)C)c1` [Compound 1, reference compound] yielded a solubility above 400 µM. The maximal response (Emax) at human OX2 receptor came to 94%. In data set [2], the “metabolic stability in rat liver microsomes, in words” value is on record as “modest metabolic stability” and the half-life is below 1 min. Moreover, the body temperature entry with wild-type mice is given as “without affecting body temperature”. Also, the Emax on OX1R was 55%. This compound also registered an inhibition constant Ki on σ1 of 2500 nM.

Compound `COc1ccc(-c2cccc(C(=O)N(C)Cc3ccncc3)c2)cc1S(=O)(=O)Nc1cncc(NCCNC(=O)c2cccc(C)c2)c1` [Compound 61] returned a solubility in data set [1] above 400 µM. In addition, the Emax was determined as 99% on human OX2 receptor and 101% on OX1R. Moreover, the “metabolic stability in rat liver microsomes, in words” value in data set [2] (listed as RTIOXA-47) is “significantly improved half-life; also recorded: significantly improved metabolic stability”. Moreover, the half-life in data set [2] was 39.7 min; in “Half-life in vivo”, 318 min.
